# Measured values reported in PubChem BioAssay (NCI).
#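 Briefly, cells in 96-well plates were exposed to five compound concentrations for 48 h, and endpoints were estimated by linear interpolation. The concentration for 50% growth inhibition is given as GI50. TGI denotes the concentration required for complete inhibition of growth.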
# Experiments:
# Experiment in all cases: NCI-60 cell line screen, 48 h
# [1] = test system: MALME-3M melanoma
# [2] = test system: 786-0 renal
# [3] = test system: CCRF-CEM leukemia
# [4] = test system: SF-268 CNS
# [5] = test system: NCI/ADR-RES ovarian
# [6] = test system: SK-OV-3 ovarian
# [7] = test system: SN12C renal
# [8] = test system: SK-MEL-28 melanoma
# [9] = test system: TK-10 renal
# [10] = test system: OVCAR-5 ovarian
# [11] = test system: HOP-62 NSCLC
# [12] = test system: MCF7 breast
# [13] = test system: SK-MEL-5 melanoma
# [14] = test system: SF-295 CNS
# [15] = test system: UACC-62 melanoma
# [16] = test system: COLO 205 colon
# [17] = test system: UACC-257 melanoma
# [18] = test system: CAKI-1 renal
# [19] = test system: MDA-MB-231 breast
# [20] = test system: PC-3 prostate
# [21] = test system: SK-MEL-2 melanoma
# [22] = test system: LOX IMVI melanoma
# [23] = test system: ACHN renal
# [24] = test system: HL-60(TB) leukemia
# [25] = test system: A498 renal
# [26] = test system: HCT-15 colon
# [27] = test system: OVCAR-8 ovarian
# [28] = test system: HOP-92 NSCLC
# [29] = test system: BT-549 breast
# [30] = test system: IGROV1 ovarian
# [31] = test system: SW-620 colon
# [32] = test system: HS 578T breast
# [33] = test system: MOLT-4 leukemia
# [34] = test system: MDA-MB-468 breast
# [35] = test system: HCC-2998 colon
# [36] = test system: T-47D breast
# [37] = test system: OVCAR-3 ovarian
# [38] = test system: U251 CNS
# [39] = test system: RXF 393 renal
# [40] = test system: SR leukemia
# [41] = test system: EKVX NSCLC
# [42] = test system: HCT-116 colon
# [43] = test system: M14 melanoma
# [44] = test system: NCI-H460 lung
# [45] = test system: HT29 colon
# [46] = test system: DU-145 prostate
# [47] = test system: KM12 colon
# [48] = test system: SF-539 CNS
# [49] = test system: A549 NSCLC
# [50] = test system: UO-31 renal
# [51] = test system: NCI-H23 lung
# [52] = test system: RPMI-8226 leukemia
# [53] = test system: K-562 leukemia
# [54] = test system: MDA-MB-435
# [55] = test system: OVCAR-4 ovarian
# [56] = test system: NCI-H226 lung
# [57] = test system: SNB-19 CNS
# [58] = test system: SNB-75 CNS
# [59] = test system: NCI-H522 lung
structure (smiles),measurement,setting,value
COc1nc(N)ncc1-c1ccc2ncnc(N3CCc4cc(F)c(Cl)cc43)c2c1,GI50,[1],8.68 µM
same,TGI,[1],49.4 µM
same,GI50,[2],1.49 µM
same,TGI,[2],3.38 µM
same,GI50,[3],26 µM
same,TGI,[3],> 100 µM
same,GI50,[4],12.3 µM
same,TGI,[4],> 100 µM
same,GI50,[5],2.73 µM
same,TGI,[5],15.7 µM
same,GI50,[6],1.62 µM
same,TGI,[6],4.03 µM
same,GI50,[7],1.92 µM
same,TGI,[7],10.1 µM
same,GI50,[8],5.2 µM
same,TGI,[8],18.9 µM
same,GI50,[9],0.703 µM
same,TGI,[9],4.23 µM
same,GI50,[10],3.92 µM
same,TGI,[10],> 100 µM
same,GI50,[11],1.47 µM
same,TGI,[11],5.85 µM
same,GI50,[12],3.11 µM
same,TGI,[12],22 µM
same,GI50,[13],4.15 µM
same,TGI,[13],> 100 µM
same,GI50,[14],2.37 µM
same,TGI,[14],7.58 µM
same,GI50,[15],3.92 µM
same,TGI,[15],19.9 µM
same,GI50,[16],3.37 µM
same,TGI,[16],> 100 µM
same,GI50,[17],8.26 µM
same,TGI,[17],83.6 µM
same,GI50,[18],1.2 µM
same,TGI,[18],3.78 µM
same,GI50,[19],1.84 µM
same,TGI,[19],6.46 µM
same,GI50,[20],10.6 µM
same,TGI,[20],> 100 µM
same,GI50,[21],> 100 µM
same,TGI,[21],> 100 µM
same,GI50,[22],3.11 µM
same,TGI,[22],14.8 µM
same,GI50,[23],1.21 µM
same,TGI,[23],4.22 µM
same,GI50,[24],3.08 µM
same,TGI,[24],> 100 µM
same,GI50,[25],1.54 µM
same,TGI,[25],5.43 µM
same,GI50,[26],3.04 µM
same,TGI,[26],24.7 µM
same,GI50,[27],2.33 µM
same,TGI,[27],9.2 µM
same,GI50,[28],1.81 µM
same,TGI,[28],7.23 µM
same,GI50,[29],6.44 µM
same,TGI,[29],> 100 µM
same,GI50,[30],0.594 µM
same,TGI,[30],3.82 µM
same,GI50,[31],4.26 µM
same,TGI,[31],> 100 µM
same,GI50,[32],2 µM
same,TGI,[32],8.4 µM
same,GI50,[33],11.7 µM
same,TGI,[33],> 100 µM
same,GI50,[34],0.269 µM
same,TGI,[34],1.81 µM
same,GI50,[35],2.79 µM
same,TGI,[35],10.1 µM
same,GI50,[36],1.61 µM
same,TGI,[36],7.67 µM
same,GI50,[37],2.3 µM
same,TGI,[37],11.2 µM
same,GI50,[38],2.3 µM
same,TGI,[38],7.74 µM
same,GI50,[39],1.5 µM
same,TGI,[39],5.28 µM
same,GI50,[40],3.09 µM
same,TGI,[40],> 100 µM
same,GI50,[41],1.93 µM
same,TGI,[41],86.2 µM
same,GI50,[42],2.93 µM
same,TGI,[42],11.3 µM
same,GI50,[43],18.9 µM
same,TGI,[43],> 100 µM
same,GI50,[44],2.65 µM
same,TGI,[44],7.97 µM
same,GI50,[45],7.86 µM
same,TGI,[45],52.2 µM
same,GI50,[46],3.82 µM
same,TGI,[46],36.2 µM
same,GI50,[47],10.4 µM
same,TGI,[47],> 100 µM
same,GI50,[48],2.96 µM
same,TGI,[48],12.5 µM
same,GI50,[49],2.04 µM
same,TGI,[49],8.55 µM
same,GI50,[50],0.583 µM
same,TGI,[50],3.99 µM
same,GI50,[51],4.26 µM
same,TGI,[51],39.1 µM
same,GI50,[52],3.26 µM
same,TGI,[52],> 100 µM
same,GI50,[53],6.45 µM
same,TGI,[53],> 100 µM
same,GI50,[54],6.94 µM
same,TGI,[54],> 100 µM
same,GI50,[55],1.87 µM
same,TGI,[55],4.28 µM
same,GI50,[56],1.15 µM
same,TGI,[56],4.21 µM
same,GI50,[57],2.21 µM
same,TGI,[57],12.2 µM
same,GI50,[58],1.47 µM
same,TGI,[58],4.02 µM
same,GI50,[59],2.3 µM
same,TGI,[59],11.5 µM
C/C(=N\N=C\c1ccc(Cl)c([N+](=O)[O-])c1)c1ccc2c(c1)Nc1ccccc1S2,GI50,[1],10.9 µM
same,TGI,[1],41.1 µM
same,GI50,[2],26.5 µM
same,TGI,[2],> 100 µM
same,GI50,[3],4.12 µM
same,TGI,[3],> 100 µM
same,GI50,[4],23.8 µM
same,TGI,[4],> 100 µM
same,GI50,[5],5.22 µM
same,TGI,[5],53.1 µM
same,GI50,[6],37 µM
same,TGI,[6],> 100 µM
same,GI50,[7],44.3 µM
same,TGI,[7],> 100 µM
same,GI50,[8],17.8 µM
same,TGI,[8],> 100 µM
same,GI50,[9],18 µM
same,TGI,[9],94.4 µM
same,GI50,[10],> 100 µM
same,TGI,[10],> 100 µM
same,GI50,[11],8.03 µM
same,TGI,[11],41.3 µM
same,GI50,[12],3.19 µM
same,TGI,[12],30 µM
same,GI50,[13],7.91 µM
same,TGI,[13],> 100 µM
same,GI50,[14],7.73 µM
same,TGI,[14],65.3 µM
same,GI50,[15],15.1 µM
same,TGI,[15],> 100 µM
same,GI50,[16],36.1 µM
same,TGI,[16],> 100 µM
same,GI50,[17],9.51 µM
same,TGI,[17],> 100 µM
same,GI50,[18],13.7 µM
same,TGI,[18],> 100 µM
same,GI50,[19],14.3 µM
same,TGI,[19],> 100 µM
same,GI50,[20],3 µM
same,TGI,[20],23.3 µM
same,GI50,[21],43.2 µM
same,TGI,[21],> 100 µM
same,GI50,[22],24.8 µM
same,TGI,[22],> 100 µM
same,GI50,[23],14.4 µM
same,TGI,[23],> 100 µM
same,GI50,[24],16.9 µM
same,TGI,[24],> 100 µM
same,GI50,[25],31 µM
same,TGI,[25],> 100 µM
same,GI50,[26],9.1 µM
same,TGI,[26],> 100 µM
same,GI50,[27],6.09 µM
same,TGI,[27],> 100 µM
same,GI50,[28],12.2 µM
same,TGI,[28],61 µM
same,GI50,[29],17.1 µM
same,TGI,[29],91.8 µM
same,GI50,[30],17.7 µM
same,TGI,[30],> 100 µM
same,GI50,[31],3.56 µM
same,TGI,[31],> 100 µM
same,GI50,[32],7.56 µM
same,TGI,[32],62.3 µM
same,GI50,[33],9.98 µM
same,TGI,[33],> 100 µM
same,GI50,[34],1.58 µM
same,TGI,[34],5.66 µM
same,GI50,[35],5.08 µM
same,TGI,[35],19.4 µM
same,GI50,[36],6.56 µM
same,TGI,[36],> 100 µM
same,GI50,[37],4.46 µM
same,TGI,[37],22.5 µM
same,GI50,[38],7.43 µM
same,TGI,[38],52.4 µM
same,GI50,[39],15.3 µM
same,TGI,[39],59 µM
same,GI50,[40],3.49 µM
same,TGI,[40],> 100 µM
same,GI50,[41],5.85 µM
same,TGI,[41],> 100 µM
same,GI50,[42],4.44 µM
same,TGI,[42],> 100 µM
same,GI50,[43],72.4 µM
same,TGI,[43],> 100 µM
same,GI50,[44],3.38 µM
same,TGI,[44],20 µM
same,GI50,[45],4.26 µM
same,TGI,[45],> 100 µM
same,GI50,[46],3.76 µM
same,TGI,[46],> 100 µM
same,GI50,[47],9.7 µM
same,TGI,[47],> 100 µM
same,GI50,[48],18.5 µM
same,TGI,[48],74.5 µM
same,GI50,[49],12.2 µM
same,TGI,[49],> 100 µM
same,GI50,[50],78.2 µM
same,TGI,[50],> 100 µM
same,GI50,[51],6.83 µM
same,TGI,[51],39.3 µM
same,GI50,[52],4.27 µM
same,TGI,[52],> 100 µM
same,GI50,[53],5.37 µM
same,TGI,[53],> 100 µM
same,GI50,[54],14.4 µM
same,TGI,[54],> 100 µM
same,GI50,[55],4.03 µM
same,TGI,[55],> 100 µM
same,GI50,[56],8.48 µM
same,TGI,[56],41.9 µM
same,GI50,[57],15.8 µM
same,TGI,[57],53.6 µM
same,GI50,[58],15.7 µM
same,TGI,[58],93.5 µM
same,GI50,[59],11.6 µM
same,TGI,[59],> 100 µM
